Laboratory results reported in patent US8623901B2, “Compounds for the treatment of CNS disorders” (Boehringer Ingelheim International GmbH, priority 2009, dated 2014).

Key:
[1] = target: Murine PDE9A (Mus musculus (Mouse), UniProt O70628); details: cited from earlier work
[2] = target: human PDE9A (Homo sapiens (Human), UniProt O76083); details: concentrations of up to 100 micromolar (μM); cited from earlier work
[3] = target: human PDE9A2 (Homo sapiens (Human), UniProt O76083); experiment: PDE9A2 enzymatic activity assay (scintillation proximity assay); format: biochemical
Method: As enzyme source, lysate (PBS with 1% Triton X-100 supplemented with protease inhibitors, cell debris removed by centrifugation at 13.000 rpm for 30 min) of SF 9 cell expressing the human PDE9A2 was used. The total protein amount included in the assay varied upon infection and production efficacy of the SF9 cells and lay in the range of 0.1-100 ng.
The assays were run in 384-well format. The test reagents as well as the enzyme and the substrate were diluted in assay buffer. The assay buffer contained 50 mM Tris, 8.3 mM MgCl2, 1.7 mM EGTA, 0.1% BSA, 0.05% Tween 20; the pH of assay buffer was adjusted to 7.5.
The activity of the positive control (minus the negative control=background) is set to 100% and activity in the presence of test compound is expressed relative to these 100%.
(§1) IC50 can be calculated with GraphPadPrism or other suited software setting the positive control as 100 and the negative control as 0. For calculation of IC50 dilutions of the test compounds (substrates) are to be selected and tested following the aforementioned protocol.

[4] = target: PDE1C (Homo sapiens (Human), UniProt Q14123); experiment: PDE1C assay (SPA, analogue to the PDE9A2 assay); format: biochemical; details: ratio PDE1C IC50 / PDE9A2 IC50
Text: The reaction can be stopped by applying the same inhibitor than the one that is outlined above (1-(2-Chlorophenyl)-6-[(2R)-3,3,3-trifluoro-2-methyl-propyl]-1,5-dihydro-4H-pyrazolo[3,4-d]pyrimidine-4-one).
as §1

Sequence of human PDE9A (O76083 whole entry): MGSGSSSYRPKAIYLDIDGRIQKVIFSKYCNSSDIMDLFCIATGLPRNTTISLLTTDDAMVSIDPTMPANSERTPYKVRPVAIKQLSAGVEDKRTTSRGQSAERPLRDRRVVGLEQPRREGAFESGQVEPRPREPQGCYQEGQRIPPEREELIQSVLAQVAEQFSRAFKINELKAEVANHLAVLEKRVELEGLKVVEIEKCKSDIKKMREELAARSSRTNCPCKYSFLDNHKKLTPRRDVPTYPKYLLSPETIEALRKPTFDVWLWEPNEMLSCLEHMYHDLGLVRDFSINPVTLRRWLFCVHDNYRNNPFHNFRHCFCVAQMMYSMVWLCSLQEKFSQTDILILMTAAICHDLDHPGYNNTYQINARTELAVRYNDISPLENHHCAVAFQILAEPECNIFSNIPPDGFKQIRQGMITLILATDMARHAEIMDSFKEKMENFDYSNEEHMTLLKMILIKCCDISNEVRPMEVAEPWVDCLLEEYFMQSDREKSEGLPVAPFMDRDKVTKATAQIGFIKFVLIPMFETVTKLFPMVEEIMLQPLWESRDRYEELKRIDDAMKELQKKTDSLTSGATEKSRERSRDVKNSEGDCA
Sequence of Murine PDE9A (O70628 whole entry): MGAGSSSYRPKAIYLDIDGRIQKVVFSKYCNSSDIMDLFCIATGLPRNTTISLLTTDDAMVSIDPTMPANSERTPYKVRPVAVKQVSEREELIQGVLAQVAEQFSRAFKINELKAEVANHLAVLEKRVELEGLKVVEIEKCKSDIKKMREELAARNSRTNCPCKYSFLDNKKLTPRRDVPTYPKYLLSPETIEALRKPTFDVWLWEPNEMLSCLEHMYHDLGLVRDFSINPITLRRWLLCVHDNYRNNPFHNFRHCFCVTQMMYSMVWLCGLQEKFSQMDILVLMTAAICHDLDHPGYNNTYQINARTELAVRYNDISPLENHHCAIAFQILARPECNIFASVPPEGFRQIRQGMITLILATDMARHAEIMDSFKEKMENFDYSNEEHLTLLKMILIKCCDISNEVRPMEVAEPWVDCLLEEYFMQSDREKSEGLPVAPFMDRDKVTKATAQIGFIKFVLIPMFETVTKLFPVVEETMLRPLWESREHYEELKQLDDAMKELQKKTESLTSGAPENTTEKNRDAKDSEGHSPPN
Sequence of human PDE9A2 (O76083 other isoform, or with tags, fused parts or gaps): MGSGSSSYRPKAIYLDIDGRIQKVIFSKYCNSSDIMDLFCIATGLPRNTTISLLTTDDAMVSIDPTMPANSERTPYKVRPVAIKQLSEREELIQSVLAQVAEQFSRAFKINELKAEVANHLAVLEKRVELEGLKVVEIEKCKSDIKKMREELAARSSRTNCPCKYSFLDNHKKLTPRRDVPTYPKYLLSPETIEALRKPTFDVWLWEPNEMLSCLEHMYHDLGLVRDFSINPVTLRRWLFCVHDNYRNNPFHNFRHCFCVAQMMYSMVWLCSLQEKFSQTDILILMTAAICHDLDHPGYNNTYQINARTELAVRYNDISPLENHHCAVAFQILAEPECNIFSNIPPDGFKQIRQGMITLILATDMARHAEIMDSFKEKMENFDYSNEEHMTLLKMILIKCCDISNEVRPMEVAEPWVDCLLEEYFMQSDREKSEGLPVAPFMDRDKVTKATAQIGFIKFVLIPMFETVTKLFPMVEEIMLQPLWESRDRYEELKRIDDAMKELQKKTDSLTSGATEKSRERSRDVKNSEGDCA

Compound | inhibition on the isolated enzyme [2] | further results
CC(C)Cn1c(=O)n(C)c(=O)c2[nH]cnc21 [IBMX] | no inhibition | inhibition of murine PDE9A ([1]; concentrations below 200 micromolar): not inhibited
CCCOc1ccccc1-c1nc2nn[nH]c2c(=O)[nH]1 [zaprinast] | – | IC50 ([1]; murine PDE9A): 29 µM
CC(C)(C)c1cccc(-c2ccccc2Cc2nc3c(cnn3C3CCOCC3)c(=O)[nH]2)n1 [Example 259] | – | inhibition at 10 µM ([3]; PDE9A2, 10 microM test compound, read-out: I % (at 10 microM): inhibition at 10 micromolar concentration): 102%; IC50 ([3]; human PDE9A2, cGMP 20 nanomolar, read-out: IC50 values for PDE9A2 inhibition): 0.003 µM; S: selectivity values [= (IC50 for PDE1C inhibition)/(IC50 for PDE9A2 inhibition)] [4]: 942
COc1ccc(C2CNC(=O)C2)cc1OC1CCCC1 (stereo not shown) [rolipram] | no inhibition | –
CCOC(=O)C1=C[C@]2(CC)CCCN3CCc4c(n1c1ccccc41)[C@@H]32 [vinpocetine] | no inhibition | –
OCCN(CCO)c1nc(N2CCCCC2)c2nc(N(CCO)CCO)nc(N3CCCCC3)c2n1 [dipyridamole] | no inhibition | –
CC(=O)Nc1ccc(-c2c[nH]c(=O)cn2)cc1 [SKF94120] | no inhibition | –
